Measurements published in US11878970B2, “Allosteric chromenone inhibitors of phosphoinositide 3-kinase (PI3K) for the treatment of disease” (Petra Pharma Corporation, priority 2021, dated 2024).

Experiments:
[1] = biological target: T1, PI3K-α (PIK3CA) H1047R mutant, p110α/p85α complex (Homo sapiens, UniProt P42336, H1047R); test: PI3K-alpha kinase (PIK3CA) biochemical activity, ADP-Glo, H1047R mutant; conditions: Soy PI lipid substrate
T1 construct: Recombinant, catalytically active human full length PIK3KA Wild-type and H1047R mutant; 6×His (N); purchased EMD Millipore Sigma 14-792M
T1 sequence (P42336 whole entry H1047R): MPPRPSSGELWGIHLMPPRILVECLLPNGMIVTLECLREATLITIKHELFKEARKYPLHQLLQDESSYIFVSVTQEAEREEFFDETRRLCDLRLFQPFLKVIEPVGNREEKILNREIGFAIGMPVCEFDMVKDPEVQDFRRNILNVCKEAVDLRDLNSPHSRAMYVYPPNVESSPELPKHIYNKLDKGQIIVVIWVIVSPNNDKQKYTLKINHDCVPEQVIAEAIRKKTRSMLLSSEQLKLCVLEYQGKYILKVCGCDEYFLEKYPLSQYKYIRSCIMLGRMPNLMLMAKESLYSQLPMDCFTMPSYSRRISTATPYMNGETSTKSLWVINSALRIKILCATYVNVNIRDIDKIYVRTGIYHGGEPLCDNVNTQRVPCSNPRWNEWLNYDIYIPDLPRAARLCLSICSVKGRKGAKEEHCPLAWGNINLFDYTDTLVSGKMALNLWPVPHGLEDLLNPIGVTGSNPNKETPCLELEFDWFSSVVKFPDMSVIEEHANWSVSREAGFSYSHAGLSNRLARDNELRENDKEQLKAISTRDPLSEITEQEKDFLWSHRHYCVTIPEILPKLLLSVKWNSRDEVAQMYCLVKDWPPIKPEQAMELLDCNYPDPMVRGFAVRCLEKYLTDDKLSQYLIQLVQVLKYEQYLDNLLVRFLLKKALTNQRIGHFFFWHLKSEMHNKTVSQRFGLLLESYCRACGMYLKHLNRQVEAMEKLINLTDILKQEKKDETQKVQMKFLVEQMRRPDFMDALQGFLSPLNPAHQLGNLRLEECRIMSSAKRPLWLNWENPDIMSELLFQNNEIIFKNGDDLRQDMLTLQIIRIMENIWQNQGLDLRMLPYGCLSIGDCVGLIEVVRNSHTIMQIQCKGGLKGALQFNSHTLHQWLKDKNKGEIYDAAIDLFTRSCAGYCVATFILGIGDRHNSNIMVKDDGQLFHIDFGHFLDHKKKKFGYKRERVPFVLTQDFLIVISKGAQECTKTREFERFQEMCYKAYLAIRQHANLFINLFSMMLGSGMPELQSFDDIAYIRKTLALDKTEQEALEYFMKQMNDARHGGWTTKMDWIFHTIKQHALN
T1 sequence (P27986 whole entry partner): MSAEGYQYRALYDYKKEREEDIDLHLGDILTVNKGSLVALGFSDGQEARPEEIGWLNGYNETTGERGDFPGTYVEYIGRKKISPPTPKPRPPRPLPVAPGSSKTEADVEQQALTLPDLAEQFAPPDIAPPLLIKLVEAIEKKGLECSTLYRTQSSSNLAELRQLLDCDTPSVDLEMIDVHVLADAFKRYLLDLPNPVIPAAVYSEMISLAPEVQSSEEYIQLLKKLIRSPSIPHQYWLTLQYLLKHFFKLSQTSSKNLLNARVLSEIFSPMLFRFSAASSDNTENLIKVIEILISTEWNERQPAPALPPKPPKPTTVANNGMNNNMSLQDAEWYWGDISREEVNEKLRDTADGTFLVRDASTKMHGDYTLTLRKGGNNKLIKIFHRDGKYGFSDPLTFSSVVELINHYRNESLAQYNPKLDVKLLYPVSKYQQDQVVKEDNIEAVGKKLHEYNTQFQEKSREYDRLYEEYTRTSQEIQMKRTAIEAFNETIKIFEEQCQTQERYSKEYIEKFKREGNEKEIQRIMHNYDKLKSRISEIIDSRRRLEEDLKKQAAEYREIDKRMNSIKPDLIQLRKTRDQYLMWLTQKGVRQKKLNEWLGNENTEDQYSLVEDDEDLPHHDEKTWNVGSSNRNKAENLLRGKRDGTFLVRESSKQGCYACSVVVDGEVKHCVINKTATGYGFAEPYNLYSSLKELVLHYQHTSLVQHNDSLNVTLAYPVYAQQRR
Summary of the method: (§1)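 ADP formation measured by ADP-Glo luminescence after reaction at 27 °C to about 10% ATP turnover, using 20 uM ATP, 50 uM PIP2diC8 or soy PI lipid, HEPES pH 7.4 with MgCl2. Enzyme (1-5 nM WT or H1047R p110α/p85α) and compound preincubated 1 h first; 10-point 1:3 curves fitted four-parameter for IC50.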

[2] = biological target: PI3K-α (PIK3CA) in MDA-MB-453 cells (Homo sapiens, UniProt P42336); test: PI3K-alpha kinase (PIK3CA) in vitro cell based assay, MDA-MB-453 cells, SureFire Ultra AlphaLisa; conditions: read-out: PI3K-α (PIK3CA) in vitro cell based assay IC50
Sequence of PI3K-α (PIK3CA) in MDA-MB-453 cells (P27986 2-724): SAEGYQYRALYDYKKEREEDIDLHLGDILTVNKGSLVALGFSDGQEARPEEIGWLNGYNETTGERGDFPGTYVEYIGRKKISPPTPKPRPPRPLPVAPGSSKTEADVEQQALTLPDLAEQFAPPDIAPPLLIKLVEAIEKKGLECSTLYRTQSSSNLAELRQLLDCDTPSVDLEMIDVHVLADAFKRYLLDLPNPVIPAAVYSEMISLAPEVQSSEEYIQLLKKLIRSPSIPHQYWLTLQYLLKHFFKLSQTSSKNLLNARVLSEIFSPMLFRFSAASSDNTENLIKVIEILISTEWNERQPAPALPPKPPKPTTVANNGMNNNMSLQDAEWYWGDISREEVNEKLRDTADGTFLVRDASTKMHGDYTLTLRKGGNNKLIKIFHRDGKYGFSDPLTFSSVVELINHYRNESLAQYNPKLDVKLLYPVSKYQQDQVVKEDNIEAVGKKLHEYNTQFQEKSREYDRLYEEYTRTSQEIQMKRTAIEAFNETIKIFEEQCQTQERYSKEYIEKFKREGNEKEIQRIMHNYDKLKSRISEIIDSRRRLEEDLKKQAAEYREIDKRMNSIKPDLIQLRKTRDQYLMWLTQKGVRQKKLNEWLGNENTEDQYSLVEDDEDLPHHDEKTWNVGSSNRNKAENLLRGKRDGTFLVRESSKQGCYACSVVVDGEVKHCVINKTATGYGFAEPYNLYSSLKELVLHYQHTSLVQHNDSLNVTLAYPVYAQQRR
Sequence of PI3K-α (PIK3CA) in MDA-MB-453 cells (P42336 whole entry): as the sequence (P42336 whole entry H1047R) above, with R1047H counted along it
Experimental: PI3K-Alpha Kinase (PIK3CA) Activity In Vitro Cell Based Assay and Determining IC50 Values for Inhibitors
The MDA-MB-453 (ATCC-HTB-131) cell line was obtained from the American Type Culture Collection (Manassas, VA). Cells were maintained in Dulbecco's Modified Eagle Media (DMEM, Gibco 11965-092) supplemented with 10% Fetal Bovine Serum, heat inactivated (FBS HI, Gibco 10082-147), 1× non-essential amino acids (NEAA, Gibco 11140-050), and 1 mM sodium pyruvate (Gibco 11360-070). Cultures were maintained in a humidified incubator at 37° C. under 5% CO2/95% air.
For compound testing in 0% FBS, MDA-MB-453 cells were seeded at a density of 1.5×10^4 cells per well in white 384-well plates in 20 μl of Minimum Essential Media (MEM) assay media with 1×NEAA, 1 mM sodium pyruvate, and 1 μg/mL human insulin (Sigma I9278). Compounds dissolved in 10 mM stock solutions in DMSO were serially diluted 1:3 in DMSO to generate a 10-point dilution series and plated using an acoustic liquid handler system (Echo 550 Series Liquid Handler, Labcyte). A 5× intermediate compound dilution plate in MEM with 1×NEAA and 1 mM sodium pyruvate (150 μM starting compound concentration in 1.5% DMSO) was then prepared. Five μl of the intermediate serially diluted compounds were added to the cell plate to final concentrations ranging from […] in 0.3% DMSO. 0.3% DMSO alone was used to establish the maximum (MAX) signal and GDC-0032 at a final concentration of 1 μM was used as a reference compound for the minimum (MIN) signal. After 3 hours treatment, the medium was removed, and the cells lysed in 10 μL of 1× SureFire Lysis buffer with shaking for 10 minutes at room temperature. The Acceptor Mix (Reaction Buffer 1+Reaction Buffer 2+Activation Buffer+SureFire Ultra Acceptor Beads) was prepared by diluting Activation buffer 25-fold in combined Reaction Buffer 1 and Reaction Buffer 2. The Acceptor beads were diluted 50-fold in the combined Reaction Buffers. Five μL of Acceptor Mix was added to each well, the plate was sealed and covered with foil and incubated for 1 hour at room temperature. The Donor Mix (dilution buffer+SureFire Ultra Donor Beads) was prepared by diluting Donor Beads 50-fold in dilution buffer. Five μL of the Donor Mix was added to each well and the plate sealed and covered with foil and incubated for 1 hour at room temperature in the dark. The plates were read on a Neo2 plate reader instrument from Biotek using standard AlphaLisa settings. Compounds were tested in duplicate and the average % inhibition at each compound concentration was used to generate a single dose response curve. The data were processed using the Genedata-Screener tool. Relative IC50 values were determined using luminescence units by calculating percent inhibition with respect to the in-plate “MIN” (GDC-0032 reference control) and “MAX” (DMSO) controls. The data was analyzed using a 4-parameter nonlinear logistic equation (four-parameter logistic concentration-response curve): Y=bottom+[(top−bottom)/1+(X/IC50)slope] where Y=% inhibition, X=concentration of inhibitor, bottom=minimum value of y attained by curve-fit, top=maximum value of y attained by curve-fit and slope=steepness of curve at the IC50. % Inhibition=[(signal at X−median Min)/(median Max−median Min)]×100 IC50: concentration of compound that reduces a given response (ligand binding, enzyme response) by 50%. Relative IC50: concentration giving half the compound's maximum response.

[3] = biological target: T2, PI3K-α (PIK3CA) wild-type (WT), p110α/p85α complex (Homo sapiens, UniProt P42336); test: PI3K-alpha kinase (PIK3CA) biochemical activity, ADP-Glo, wild-type; conditions: Soy PI lipid substrate
T2 construct: Recombinant, catalytically active human full length PIK3KA Wild-type and H1047R mutant; 6×His (N); purchased EMD Millipore Sigma 14-602M
Summary of the method: as §1

| Compound | IC50 [1] [nM] | IC50 [2] [nM] | IC50 [3] [nM] |
| --- | --- | --- | --- |
| Cc1cc([C@@H](C)Nc2ccccc2C(=O)O)c2oc(-c3ccc4nc(C)sc4c3)c(C)c(=O)c2c1 [Example 262, 2-[[(1R)-1-[3,6-Dimethyl-2-(2-methyl-1,3-benzothiazol-6-yl)-4-oxo-chromen-8-yl]ethyl]amino]benzoic acid] | < 500 | < 50 | 500 to 1000 |
| Cc1cc([C@@H](C)Nc2cccc(F)c2C(=O)O)c2oc(-c3ccc4nc(C)cn4c3)cc(=O)c2c1 [Example 228, 2-Fluoro-6-[[(1R)-1-[6-methyl-2-(2-methylimidazo[1,2-a]pyridin-6-yl)-4-oxo-chromen-8-yl]ethyl]amino]benzoic acid] | < 500 | 100 to 500 | 500 to 1000 |
| Cc1cc([C@@H](C)Nc2ccccc2C(=O)O)c2oc(-c3cc4cnccc4s3)c(C)c(=O)c2c1 [Example 203, 2-[[(1R)-1-(3,6-Dimethyl-4-oxo-2-thieno[3,2-c]pyridin-2-yl-chromen-8-yl)ethyl]amino]benzoic acid] | < 500 | < 50 | < 500 |
| CC(Nc1ccccc1C(=O)O)c1cc(C(F)(F)F)cc2c(=O)cc(-c3ccc4c(cnn4C)c3)oc12 (single isomer, unassigned) [Example 109, 2-[1-[2-(1-Methylindazol-5-yl)-4-oxo-6-(trifluoromethyl)chromen-8-yl]ethylamino]benzoic acid] | < 500 | < 50 | 1000 to 5000 |
| Cc1cc([C@@H](C)Nc2ccc(F)cc2C(=O)O)c2oc(-c3ccc4c(cnn4C)c3)c(C)c(=O)c2c1 [Example 260, 2-[[(1R)-1-[3,6-Dimethyl-2-(1-methylindazol-5-yl)-4-oxo-chromen-8-yl]ethyl]amino]-5-fluoro-benzoic acid] | < 500 | < 50 | < 500 |
| Cc1cc(C(C)Nc2ccccc2C(=O)O)c2oc(-c3ccc4cc[nH]c4c3)cc(=O)c2c1 (stereo not drawn) [Example 18, 2-[1-[2-(1H-Indol-6-yl)-6-methyl-4-oxo-chromen-8-yl]ethylamino]benzoic acid] | < 500 | 100 to 500 | 1000 to 5000 |
| Cc1cc(C(C)Nc2ccccc2C(=O)O)c2oc(-c3ccc4c(c3)CN(C)C4=O)cc(=O)c2c1 (single isomer, unassigned) [Example 32, 2-[1-[6-Methyl-2-(2-methyl-1-oxo-isoindolin-5-yl)-4-oxo-chromen-8-yl]ethylamino]benzoic acid] | > 10000 | > 500 | 5000 to 10000 |
| Cc1cc(C(C)Nc2ccccc2C(=O)O)c2oc(-c3cc4ccccc4[nH]3)c(C)c(=O)c2c1 (single isomer, unassigned) [Example 52, 2-[1-[2-(1H-Indol-2-yl)-3,6-dimethyl-4-oxo-chromen-8-yl]ethylamino]benzoic acid] | < 500 | < 50 | 500 to 1000 |
| COc1ccc2cc(-c3cc(=O)c4cc(C)cc([C@@H](C)Nc5ccccc5C(=O)O)c4o3)cc(C)c2n1 [Example 248, 2-[[(1R)-1-[2-(2-Methoxy-8-methyl-6-quinolyl)-6-methyl-4-oxo-chromen-8-yl]ethyl]amino]benzoic acid] | 500 to 1000 | 100 to 500 | 1000 to 5000 |
| Cc1cc([C@@H](C)Nc2cccnc2C(=O)O)c2oc(-c3ccc4nc(C)sc4n3)c(C)c(=O)c2c1 [Example 243, 3-[[(1R)-1-[3,6-Dimethyl-2-(2-methylthiazolo[5,4-b]pyridin-5-yl)-4-oxo-chromen-8-yl]ethyl]amino]pyridine-2-carboxylic acid] | 1000 to 5000 | 100 to 500 | 1000 to 5000 |
| Cc1cc(C(C)Nc2ccccc2C(=O)O)c2oc(-c3ccn4nccc4c3)cc(=O)c2c1 (single isomer, unassigned) [Example 113, 2-[1-(6-Methyl-4-oxo-2-pyrazolo[1,5-a]pyridin-5-yl-chromen-8-yl)ethylamino]benzoic acid] | < 500 | < 50 | 500 to 1000 |
